# Assays:
# [1] = Pharmacokinetic experiment on rats: maximum plasma drug concentration (Cmax); assay type: in vivo, rat; settings: male SD rats, po, 10 mg/kg, vehicle 5% CMC-Na aqueous solution
# Protocol: In the pharmacokinetic experiment on rats, the maximum plasma drug concentration (Cmax) was used to evaluate the absorption of the compounds in rats. All rats fasted overnight before administration; the test compounds were dissolved and administered orally (po) to male SD rats, with 3 rats in each group. After administration of the test compounds, blood was collected by jugular vein puncture at […] with about 0.25 mL per sample. The plasma drug concentration was determined by LC-MS/MS method, and the pharmacokinetic parameters were calculated by Phoenix WinNonlin7.0. The dosage was 10 mg/kg, and the vehicle was 5% CMC-Na aqueous solution.
# [2] = Pharmacokinetic experiment on rats: brain entry ratio (brain tissue/plasma concentration ratio); assay type: in vivo; settings: rat, male SD rats, po 10 mg/kg, Table 6
# Protocol: The drug concentration ratio of plasma and brain tissue in the pharmacokinetic experiment on rats was used to evaluate the entry of compounds into brain. All rats fasted overnight before administration; the test compounds were dissolved and administered orally (po) to male SD rats, with 3 rats in each group. After administration of the test compounds, blood was collected by jugular vein puncture at 0.5 hours with about 0.25 mL per sample. The whole brain was taken at the same time. The plasma and brain tissue drug concentration were determined by LC-MS/MS method, and the pharmacokinetic parameters were calculated by Phoenix WinNonlin7.0. The dosage was 10 mg/kg, and the vehicle was 5% CMC-Na aqueous solution.
# α5-GABAA receptor [3] = settings: in vivo; cited from earlier work
# α5-GABAA receptor [4] = settings: in vivo; cited from earlier work; remark: listed apart in the source
# [5] = Water solubility observed on extraction work-up; assay type: physicochemical; settings: observed on extraction with ethyl acetate at pH=7
# Protocol: Methyl 6-[7-methoxy-3-(5-methyl-isoxazol-3-yl)-[1,2,4]triazolo[4,3-b]pyridazin-6-yloxymethyl]-nicotinate (300 mg, 0.75 mmol), 1M lithium hydroxide (1.5 mL, 1.5 mmol) were sequentially added to 10 mL of ethanol, and the mixture was stirred at room temperature for 1 hour. The mixture was added with 0.5 M hydrochloric acid to neutralize to pH=7, diluted with water, extracted with ethyl acetate. […] LC-MS: m/z [M+H]^+=383.
# [6] = Thermodynamic solubility in simulated intestinal fluid (TS in FaSSIF); assay type: physicochemical; settings: thermodynamic from solid, 37° C.
# In short: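 About 0.3 mg solid shaken in 1.5 mL FaSSIF-V2 at 1000 rpm, 37° C, 4 hours, in duplicate, then filtered. Filtrate quantified by HPLC-UV against 1 μM-200 μM standards diluted from 10 mM DMSO stock.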
# α5-GABAA receptor [7] = target: T1, α5-GABAA receptor (Homo sapiens, UniProt P18507+P31644); experiment: Cell-level screening: whole cell patch clamp, inverse agonist efficacy on α5-GABAA receptor expressed in HEK293; assay type: cell-based; settings: drug 100 nM, GABA 0.05 μM, HEK293 expressing α5, β3 and γ2 subunits, clamped at −60 mV; read-out: Compound inverse agonist efficacy %
# T1 construct: expressed in transfected cells; host or cells: HEK293, monoclonal stably transfected line
# In short: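 Whole-cell patch clamp at −60 mV on HEK293 stably expressing α5β3γ2, pH 7.4 extracellular/CsCl internal solutions. Current evoked by 0.05 μM GABA, then compound in GABA solution; screening at 100 nM, dose-response 0.3–300 nM. Inverse agonist efficacy as % change of GABA current.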
# T1 sequence (P31644 32-462): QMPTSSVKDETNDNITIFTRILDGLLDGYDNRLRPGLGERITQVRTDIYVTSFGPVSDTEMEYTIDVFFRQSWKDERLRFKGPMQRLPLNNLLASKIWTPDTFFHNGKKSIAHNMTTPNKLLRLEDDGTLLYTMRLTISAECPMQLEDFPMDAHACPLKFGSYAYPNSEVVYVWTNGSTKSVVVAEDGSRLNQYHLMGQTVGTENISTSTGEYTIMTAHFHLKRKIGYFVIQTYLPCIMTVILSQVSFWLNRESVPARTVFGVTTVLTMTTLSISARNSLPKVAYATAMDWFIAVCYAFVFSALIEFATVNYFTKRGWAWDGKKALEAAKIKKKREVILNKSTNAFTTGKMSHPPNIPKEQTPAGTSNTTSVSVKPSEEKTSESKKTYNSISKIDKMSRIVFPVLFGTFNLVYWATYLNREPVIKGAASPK
# T1 sequence (P28472 26-473 partner): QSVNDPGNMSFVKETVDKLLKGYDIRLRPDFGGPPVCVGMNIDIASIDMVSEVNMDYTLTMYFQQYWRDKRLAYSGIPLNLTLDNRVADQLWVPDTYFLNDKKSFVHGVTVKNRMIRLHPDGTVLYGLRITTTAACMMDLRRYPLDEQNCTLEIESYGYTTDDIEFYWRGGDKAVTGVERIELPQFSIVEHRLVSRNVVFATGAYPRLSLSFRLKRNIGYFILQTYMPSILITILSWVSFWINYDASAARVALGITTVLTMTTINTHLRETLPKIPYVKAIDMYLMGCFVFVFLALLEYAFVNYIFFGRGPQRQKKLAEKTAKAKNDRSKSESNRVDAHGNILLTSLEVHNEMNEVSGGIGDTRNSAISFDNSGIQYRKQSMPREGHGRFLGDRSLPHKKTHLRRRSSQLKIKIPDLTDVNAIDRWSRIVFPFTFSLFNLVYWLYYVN
# T1 sequence (P18507 40-467 isoform P18507-1 limits assumed): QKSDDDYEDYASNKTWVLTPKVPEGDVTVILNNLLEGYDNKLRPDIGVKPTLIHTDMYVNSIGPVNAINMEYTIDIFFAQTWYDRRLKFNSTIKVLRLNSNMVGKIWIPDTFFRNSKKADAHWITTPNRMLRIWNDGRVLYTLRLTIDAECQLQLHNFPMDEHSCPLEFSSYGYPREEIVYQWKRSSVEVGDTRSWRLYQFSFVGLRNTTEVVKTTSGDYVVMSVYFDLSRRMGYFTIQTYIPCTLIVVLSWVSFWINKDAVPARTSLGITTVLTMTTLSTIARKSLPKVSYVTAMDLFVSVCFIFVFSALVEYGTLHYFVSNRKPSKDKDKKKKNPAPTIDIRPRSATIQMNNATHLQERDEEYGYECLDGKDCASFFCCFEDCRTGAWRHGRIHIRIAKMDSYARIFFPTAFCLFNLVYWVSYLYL
compound,measurement,setting,value
"Cc1cc(-c2nnc3cc(C(C)(C)C)c(OCc4ccccn4)nn23)no1 [drawing 930, reference compound]",Maximum plasma drug concentration,[1],216 ng/mL
same,Kp at 0.5 h,[2],0.651
"Cc1cc(-c2nnc3c4ccccc4c(OCc4ccccn4)nn23)no1 [drawing 929, reference compound]",Maximum plasma drug concentration,[1],25.7 ng/ mL ng/mL
same,Kp at 0.5 h,[2],1.51
COc1cc2nnc(-c3cc(C)on3)n2nc1OCc1ccccn1 [drawing 928],Maximum plasma drug concentration,[1],1778 ng/mL
same,Kp at 0.5 h,[2],0.07
Cn1ncnc1COc1nn2c(-c3cc(CO)on3)nncc2c1C(C)(C)C [MRK016-M3],inhibition of (3H)RO-15-1788 binding in the central nervous system,α5-GABAA receptor [3],hardly inhibit
Cc1cc(-c2nnc3c4ccccc4c(OCc4cn(C)nn4)nn23)no1 [α5IA],therapeutic effects on the treatment of cognition related diseases in animal models,α5-GABAA receptor [4],good therapeutic effects
Cc1cc(-c2nncc3c(C(C)(C)C)c(OCc4ncnn4C)nn23)no1 [MRK-016],therapeutic effects on the treatment of cognition related diseases in animal models,α5-GABAA receptor [4],good therapeutic effects
same,inhibition of (3H)RO-15-1788 binding in the central nervous system,α5-GABAA receptor [3],effectively inhibit
"COc1cc2nnc(-c3cc(C)on3)n2nc1OCc1ccc(C(=O)O)cn1 [Embodiment 63, 6-(((7-Methoxy-3-(5-methylisoxazol-3-yl)-[1,2,4]triazolo[4,3-b]pyridazin-6-yl)oxy)methyl)nicotinate]",water solubility,[5],good water solubility
same,solubility thermodynamic at 4 h,[6],307 µg/mL
same,inhibition at 0.1 µM,α5-GABAA receptor [7],24.2%
